Measured values as given in patent US12492173B2, “Herbicidal substituted N-tetrazolyl aryl carboxamides” (Bayer Aktiengesellschaft, priority 2019, dated 2025).

How the values were obtained:
Type in all cases: in vivo
[1] = system: Stellaria media; test: Post-emergence herbicidal action, STEME; parameters: key: % herbicidal action vs untreated; 100 = plants died, 0 = like control
Procedure, shortened: (§1)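 Foliar application at the one-leaf stage of greenhouse-grown plants in sandy loam; compound applied as WP or EC in 600–800 l/ha water containing 0.2% wetting agent. Scores are visual percentages (0% like control, 100% plants died) taken after roughly 3 weeks.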

[2] = system: Matricaria inodora; test: Post-emergence herbicidal action, MATIN; parameters: key: % herbicidal action vs untreated; 100 = plants died, 0 = like control
Procedure, shortened: as §1

[3] = system: Amaranthus retroflexus; test: Pre-emergence herbicidal action, AMARE; conditions: dosage 320 g/ha; for herbicidal activity AMARE: scored visually after 3 weeks vs untreated controls (100% = plants have died)
Procedure, shortened: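 Application took place on the soil surface immediately after sowing into sandy loam, using aqueous WP or EC preparations with 0.2% wetting agent. Visual percent scoring followed 3 weeks later, untreated pots serving as reference.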

[4] = system: Polygonum convolvulus; test: Post-emergence herbicidal action, POLCO
Procedure, shortened: as §1

[5] = system: Lolium multiflorum; test: Pre-emergence herbicidal action, LOLMU; conditions: dosage 320 g/ha, scored visually after 3 weeks vs untreated controls (100% = plants have died)
From the text: 1. Pre-Emergence Herbicidal Action Against Harmful Plants Seeds of monocotyledonous and dicotyledonous weed plants and crop plants are laid out in sandy loam soil in wood-fiber pots and covered with soil. The compounds of the invention, formulated in the form of wettable powders (WP) or as emulsion concentrates (EC), are then applied to the surface of the covering soil in the form of an aqueous suspension or emulsion at a water application rate equating to 600 to 800 l/ha, with addition of 0.2% wetting agent. After the treatment, the pots are placed in a greenhouse and kept under good growth conditions for the trial plants. The damage to the test plants is scored visually after a test period of 3 weeks by comparison with untreated controls (herbicidal activity in percent (%): 100% activity=the plants have died, 0% activity=like control plants). […] The tables below illustrate, in an exemplary manner, the […] herbicidal action of the compounds according to the invention, the herbicidal activity being stated in percent. [table] In the experiments that follow, herbicidal action of numerous inventive compounds and the known compounds that are structurally closest from D1 (WO 2012/028579 A1) and D2 (WO 2018/202535 A1) were compared under the above-specified conditions by the pre-emergence and post-emergence method. The example numbers given in the tables relate to the compounds disclosed in the respective documents. In addition to the compounds disclosed in D1 and D2, the following compounds V-1 to V-14 that are encompassed by D1 or D2 but are not compounds specified therein were used in the comparative experiments: • V-1: 2-(methylsulfanyl)-3-(methylsulfinyl)-N-(1-methyl-1H-tetrazol-5-yl)-4-(trifluoromethyl)benzamide • V-2: 2-(methylsulfanyl)-3-(methylsulfonyl)-N-(1-methyl-1H-tetrazol-5-yl)-4-(trifluoromethyl)benzamide • V-3: 2,3-bis(ethylsulfanyl)-N-(1-methyl-1H-tetrazol-5-yl)-4-(trifluoromethyl)benzamide • V-4: 2-chloro-3-(ethylsulfanyl)-N-(1-methyl-1H-tetrazol-5-yl)-4-(trifluoromethyl)benzamide • V-5: 2-chloro-4-iodo-3-(methylsulfanyl)-N-(1-methyl-1H-tetrazol-5-yl)benzamide • V-6: 2-chloro-4-iodo-3-(methylsulfinyl)-N-(1-methyl-1H-tetrazol-5-yl)benzamide • V-7: 2-chloro-4-iodo-3-(methylsulfonyl)-N-(1-methyl-1H-tetrazol-5-yl)benzamide • V-8: 2-bromo-3-(methylsulfanyl)-N-(1-methyl-1H-tetrazol-5-yl)-4-(trifluoromethyl)benzamide • V-9: 2-bromo-3-(methylsulfinyl)-N-(1-methyl-1H-tetrazol-5-yl)-4-(trifluoromethyl)benzamide • V-10: 2-bromo-3-(methylsulfonyl)-N-(1-methyl-1H-tetrazol-5-yl)-4-(trifluoromethyl)benzamide • V-11: 2-bromo-3-(ethylsulfanyl)-N-(1-methyl-1H-tetrazol-5-yl)-4-(trifluoromethyl)benzamide • V-12: 2-bromo-3-(ethylsulfinyl)-N-(1-methyl-1H-tetrazol-5-yl)-4-(trifluoromethyl)benzamide • V-13: 2-bromo-3-(ethylsulfonyl)-N-(1-methyl-1-1H-tetrazol-5-yl)-4-(trifluoromethyl)benzamide • V-14: 2-cyclopropyl-3-(ethylsulfanyl)-N-(1-methyl-1H-tetrazol-5-yl)-4-(trifluoromethyl)benzamide Herbicidal Pre-Emergence Action: […]

[6] = comparative experiment, post-emergence, 5 g of a.i./ha

In the case of `CCn1nnnc1NC(=O)c1ccc(Cl)c(CSC)c1Cl` [Example 2-559], the “herbicidal action STEME” value ([1]; Dosage 80 g/ha) is reported as 100, the “herbicidal action MATIN” value ([2]; Dosage 80 g/ha) is reported as 100 and the “herbicidal action AMARE” value [3] is reported as 100%. The “herbicidal action POLCO” value ([4]; Dosage 80 g/ha) was 80.

With `CCCn1nnnc1NC(=O)c1ccc(C(F)(F)F)c(CSC)c1SC` [Example 3-161] the “herbicidal action STEME” value ([1]; Dosage 80 g/ha) was 100, the “herbicidal action MATIN” value ([2]; Dosage 80 g/ha) was 90 and the “herbicidal action AMARE” value [3] was 100%. The “herbicidal action POLCO” value ([4]; Dosage 80 g/ha) was 80.

In the case of `CCS(=O)(=O)Cc1c(C(F)(F)F)ccc(C(=O)Nc2nnnn2C)c1C` [Example 1-88], the “herbicidal action STEME” value ([1]; Dosage 80 g/ha) is reported as 100, the “herbicidal action MATIN” value ([2]; Dosage 80 g/ha) is reported as 90 and the “herbicidal action AMARE” value [3] is reported as 100%. For the same compound, the “herbicidal action POLCO” value ([4]; Dosage 80 g/ha) was 90.

For `COc1c(C(=O)Nc2nnnn2C)ccc(Cl)c1CSC` [Example 1-570], the “Herbicidal action against STEME” value ([1]; post-emergence, dosage 80 g/ha) was 80, the “Herbicidal action against MATIN” value ([2]; post-emergence, dosage 80 g/ha) was 90 and the “herbicidal action AMARE” value [3] was 100%. For the same compound, the “Herbicidal action against POLCO” value [4, 6] was 30.

In the case of `CCSCc1c(C(F)F)ccc(C(=O)Nc2nnnn2C)c1Cl` [Example 1-323], the “herbicidal action STEME” value ([1]; post-emergence, dosage 80 g/ha) is reported as 100%, the “herbicidal action MATIN” value ([2]; post-emergence, dosage 80 g/ha) is reported as 100% and the “herbicidal activity LOLMU” value [5] is reported as 100%. The “herbicidal activity AMARE” value [3] was 100% and the “herbicidal action POLCO” value ([4]; post-emergence, dosage 80 g/ha) was 90%.

In the case of `CCn1nnnc1NC(=O)c1ccc(C(F)F)c(CS(C)(=O)=O)c1Cl` [Example 2-322], the “herbicidal action STEME” value ([1]; post-emergence, dosage 80 g/ha) is reported as 100%, the “herbicidal action MATIN” value ([2]; post-emergence, dosage 80 g/ha) is reported as 90% and the “herbicidal activity LOLMU” value [5] is reported as 100%. The “herbicidal activity AMARE” value [3] was 100% and the “herbicidal action POLCO” value ([4]; post-emergence, dosage 80 g/ha) was 100%.

For `CCn1nnnc1NC(=O)c1ccc(C(F)F)c(CSC)c1Cl` [Example 2-320], the “herbicidal action STEME” value ([1]; Dosage 80 g/ha) was 100, the “herbicidal activity LOLMU” value [5] was 90% and the “herbicidal activity AMARE” value [3] was 100%. For the same compound, the “herbicidal action POLCO” value ([4]; Dosage 80 g/ha) was 100.

With `CCCn1nnnc1NC(=O)c1ccc(C(F)(F)F)c(CSCC)c1C` [Example 3-86] the “herbicidal action STEME” value ([1]; Dosage 80 g/ha) was 100, the “herbicidal action MATIN” value ([2]; Dosage 80 g/ha) was 90 and the “herbicidal action AMARE” value [3] was 100%. For the same compound, the “herbicidal action POLCO” value ([4]; Dosage 80 g/ha) was 80.

For `CSCc1c(C)ccc(C(=O)Nc2nnnn2C)c1Cl` [Example 1-287], the “herbicidal action STEME” value ([1]; Dosage 80 g/ha) was 100, the “herbicidal action MATIN” value ([2]; Dosage 80 g/ha) was 100 and the “herbicidal action AMARE” value [3] was 90%.

With `CCCn1nnnc1NC(=O)c1ccc(S(C)(=O)=O)c(CSC)c1C` [Example 3-37] the “herbicidal action STEME” value ([1]; Dosage 80 g/ha) was 100, the “herbicidal action MATIN” value ([2]; Dosage 80 g/ha) was 90 and the “herbicidal action AMARE” value [3] was 100%.

With `CCn1nnnc1NC(=O)c1ccc(S(C)(=O)=O)c(CS(C)(=O)=O)c1Cl` [Example 2-280] the “Herbicidal action against STEME” value ([1]; post-emergence, dosage 80 g/ha) was 100 and the “herbicidal action AMARE” value [3] was 100%.

With `CCCn1nnnc1NC(=O)c1ccc(C(F)(F)F)c(CS(C)(=O)=O)c1Br` [Example 3-382] the “herbicidal action STEME” value ([1]; Dosage 80 g/ha) was 100, the “herbicidal action MATIN” value ([2]; Dosage 80 g/ha) was 90 and the “herbicidal action AMARE” value [3] was 100%. For the same compound, the “herbicidal action POLCO” value ([4]; Dosage 80 g/ha) was 80.

In the case of `CCn1nnnc1NC(=O)c1ccc(C(F)(F)F)c(CS(=O)(=O)CC)c1Cl` [Example 2-301], the “herbicidal action STEME” value ([1]; Dosage 80 g/ha) is reported as 100, the “herbicidal action MATIN” value ([2]; Dosage 80 g/ha) is reported as 90 and the “herbicidal action AMARE” value [3] is reported as 100%. For the same compound, the “herbicidal action POLCO” value ([4]; Dosage 80 g/ha) was 90.

`CCSCc1c(C(F)(F)F)ccc(C(=O)Nc2nnnn2CC)c1Cl` [Example 2-299] was tested, and the “herbicidal action STEME” value ([1]; post-emergence, dosage 80 g/ha) was 100%, the “herbicidal action MATIN” value ([2]; post-emergence, dosage 80 g/ha) was 100% and the “herbicidal activity LOLMU” value [5] was 100%. The “herbicidal activity AMARE” value [3] was 100% and the “herbicidal action POLCO” value ([4]; post-emergence, dosage 80 g/ha) was 90%.

For `CSCc1c(C(F)F)ccc(C(=O)Nc2nnnn2C)c1Cl` [Example 1-320], the “herbicidal action STEME” value ([1]; Dosage 80 g/ha) was 100, the “Herbicidal action against STEME” value [1, 6] was 100 and the “herbicidal activity AMARE” value [3] was 90%. The “herbicidal action POLCO” value ([4]; Dosage 80 g/ha) was 80.
